From publication PMC12698583, “Efficacy of sulfonamides targeting malic enzyme in an animal model of Chagas disease” (Frontiers in Pharmacology, 2025)
Entries after “also recorded” stand apart in the source; their conditions may differ. Read-outs that look alike come from different tables or passages of the source.

Tests used:
[1] = biological target: T1, T. cruzi malic enzyme (TcME) (Trypanosoma cruzi, UniProt Q4DJ68); assay: Malic enzyme (TcME) inhibition assay, diaphorase/resazurin coupled; format: biochemical
T1 sequence (Q4DJ68 entry or part of it): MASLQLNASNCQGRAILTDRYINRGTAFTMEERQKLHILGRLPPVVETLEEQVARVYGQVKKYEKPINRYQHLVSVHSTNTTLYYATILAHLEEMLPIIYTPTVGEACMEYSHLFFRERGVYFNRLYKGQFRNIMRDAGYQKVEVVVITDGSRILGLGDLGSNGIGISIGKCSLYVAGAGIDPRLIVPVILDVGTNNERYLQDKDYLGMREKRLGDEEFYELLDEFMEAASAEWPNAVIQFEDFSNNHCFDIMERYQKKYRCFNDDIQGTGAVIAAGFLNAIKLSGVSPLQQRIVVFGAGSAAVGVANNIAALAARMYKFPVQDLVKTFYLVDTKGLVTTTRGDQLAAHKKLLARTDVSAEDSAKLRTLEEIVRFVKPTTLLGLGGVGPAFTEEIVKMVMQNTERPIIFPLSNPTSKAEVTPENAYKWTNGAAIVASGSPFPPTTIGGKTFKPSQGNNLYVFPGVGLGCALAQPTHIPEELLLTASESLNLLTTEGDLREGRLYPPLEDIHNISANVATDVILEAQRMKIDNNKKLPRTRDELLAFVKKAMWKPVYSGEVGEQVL
Method: The TcME inhibition assay was performed as previously described, with minor modifications ([Mercaldi et al., 2021]). Briefly, a coupled assay with the enzyme diaphorase and resorufin fluorescence (Ex 545 nm/Em 600 nm) was recorded every 30 s for 6 min in a CLARIOstar plate reader (BMG LabTech). The final concentrations of reagents in the assay were: 0.02 mM NADP+, 0.4 mM L-aspartate, 0.45 nM TcMEc, 1 U/mL diaphorase, and 10 μM resazurin, all in 50 mM Tris-HCl buffer containing 50 mM NaCl and 2 mM MnCl2 at pH 7.5. The reaction was initiated by adding 1.32 mM L-malate.

[2] = tested on: T. cruzi Dm28c strain intracellular form infecting H9c2 rat cardiomyoblasts; assay: T. cruzi intracellular image-based assay; format: cell-based, Trypanosoma cruzi
Method: (§1) Tested compounds were dissolved and serially diluted in dimethylsulfoxide (DMSO) using a half-log dilution across six concentrations. Intermediate plates were prepared by diluting compounds 1:25 in DMEM (Dulbecco’s Modified Eagle Medium) with 10% FBS (Fetal Bovine Serum). The assay was based on [Fredo Naciuk et al. (2020)], with minor modifications. Briefly, T. cruzi trypomastigotes (from LLC-MK2 cultures, 6 days post-infection) were used to infect H9c2 rat cardiomyoblasts overnight (16–18 h) at MOI 1. After washing with PBS, cells were trypsinized and resuspended in DMEM at 2.3 × 10^4 cells/mL. Then, 65 μL per well was plated in 384-well plates and incubated for 24 h (37 °C, 5% CO2, >95% humidity). Subsequently, 7.5 μL of compound solution was added (final [DMSO] 0.4%). After 72 h of treatment, cells were fixed with 4% PFA and stained with Hoechst 33342 (4 μg/mL). Six images per well were acquired using the Operetta system (PerkinElmer) and analyzed with Columbus software to quantify infected cells (≥3 cytoplasmic parasite spots).

[3] = tested on: T. cruzi Dm28c strain intracellular form infecting H9c2 rat cardiomyoblasts; conditions: cited from earlier work
H9c2 rat cardiomyoblasts = tested on: H9c2 rat cardiomyoblasts; set-up: method as in Mercaldi et al. (2021) and Peña et al. (2015); conditions: total host cells; ref Mercaldi et al. (2021) and Peña et al. (2015); cited from earlier work
[4] = biological target: T1, T. cruzi malic enzyme (TcME); set-up: method as in Mercaldi et al. (2021); conditions: TcME (cytosolic isoform); ref Mercaldi et al. (2021); cited from earlier work
[5] = Host cell cytotoxicity in the image-based assay (total host cells); conditions: rat, H9c2 rat cardiomyoblasts (infected with T. cruzi), 72 h treatment
Method: as §1

[6] = Chemical stability at physiological pHs; format: physicochemical; conditions: basic pH, 37 °C, 24 h
Method: These conditions simulate stomach acidity, plasma neutrality, and intestinal basicity.
For the chemical stability experiment, the compounds were evaluated under the same conditions with an additional incubation at 37 °C for a period of 24 h. The analysis was performed using an analytical method developed and validated by high-performance liquid chromatography with UV detection (HPLC-UV). Compounds were quantified in different pH media by comparing the areas where the substances were completely soluble with those in the reaction media. The experiments were performed in a triplicate.
These conditions simulate stomach acidity, plasma neutrality, and intestinal basicity. […] For the chemical stability experiment, the compounds were evaluated under the same conditions with an additional incubation at 37°C for a period of 24 hours. The analysis was performed using an analytical method developed and validated by high-performance liquid chromatography with UV detection (HPLC-UV). Compounds were quantified in the different pH media by comparing the areas where the substances were completely soluble with those in the reaction media. The experiments were performed in triplicate.

## COc1ccc(NS(=O)(=O)c2cccc([N+](=O)[O-])c2)cc1 [compound 5, N-(4-methoxyphenyl)-3-nitrobenzenesulfonamide]
[1]
  activity against TcME (in words): not active
[2]
  activity against T. cruzi intracellular forms (in words): not active

## COc1ccc(NS(=O)(=O)c2ccc(NC(=O)c3cnccn3)cc2)cc1 [AC-R009, N-(4-(N-(4-methoxyphenyl)sulfamoyl)phenyl)pyrazine-2-carboxamide]
[1]
  activity against TcME (in words): not active
[2]
  activity against T. cruzi intracellular forms (in words): Inactive; also recorded: didn´t affect the parasite

## CC(C)Oc1ccc(NS(=O)(=O)c2ccc(NC(=O)c3cnccn3)cc2)cc1 [AC-R010, N-(4-(N-(4-isopropoxyphenyl)sulfamoyl)phenyl)pyrazine-2-carboxamide]
[1]
  activity against TcME (in words): not active
[2]
  activity against T. cruzi intracellular forms (in words): Inactive; also recorded: didn´t affect the parasite

## COc1ccc(NS(=O)(=O)c2ccc(NC(=O)c3cc(F)cc(F)c3)cc2)cc1 [AC-R001, 3,5-difluoro-N-(4-(N-(4-methoxyphenyl)sulfamoyl)phenyl)benzamide]
[1]
  activity against TcME (in words): not active
[2]
  activity against T. cruzi intracellular forms (in words): Inactive; also recorded: didn´t affect the parasite

## COc1ccc(NS(=O)(=O)c2cccc(NC(=O)c3cc(F)cc(F)c3)c2)cc1 [TCMDC-143108]
[3]; Selectivity index, ref Mercaldi et al. (2021) and Peña et al. (2015)
  SI: > 84
[3]; host cells infected by T. cruzi amastigotes, ref Peña et al. (2015)
  EC50: 0.5 µM
H9c2 rat cardiomyoblasts
  CC50: > 42 µM
[4]
  IC50: 0.08 µM

## COc1ccc(NS(=O)(=O)c2cccc(N)c2)cc1 [compound 9, 3-amino-N-(4-methoxyphenyl)benzenesulfonamide]
[1]
  activity against TcME (in words): not active
[2]
  activity against T. cruzi intracellular forms (in words): not active

## CC(C)Oc1ccc(NS(=O)(=O)c2cccc(NC(=O)c3cc(F)cc(F)c3)c2)cc1 [AC-M109, 3,5-difluoro-N-(3-(N-(4-isopropoxyphenyl)sulfamoyl)phenyl)benzamide]
[1]; concentration necessary to inhibit 50% of T. cruzi Malic enzyme enzymatic activity
  IC50: 0.86 µM
[2]; Selectivity index
  SI: 318
[5]
  CC50 at 72 h: 12 µM
[6]
  Chemical stability: ≤ 40%

## CC(C)Oc1ccc(NS(=O)(=O)c2cccc([N+](=O)[O-])c2)cc1 [compound 6, N-(4-isopropoxyphenyl)-3-nitrobenzenesulfonamide]
[1]
  activity against TcME (in words): not active
[2]
  activity against T. cruzi intracellular forms (in words): not active

## CC(C)Oc1ccc(NS(=O)(=O)c2cccc(N)c2)cc1 [compound 10, 3-amino-N-(4-isopropoxyphenyl)benzenesulfonamide]
[1]
  activity against TcME (in words): not active
[2]
  activity against T. cruzi intracellular forms (in words): not active
